# Structures can show the parent of a compound that is named as a salt.
# Tests used:
# MAO-B enzyme = MAO-B enzyme (Homo sapiens (Human), UniProt P27338); experiment: Measurement of MAO-B inhibitory activity (MAO-Glo Assay); conditions: read-out: MAO-B IC50 value;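 further: luminescence read-out, compound preincubated 10 min with enzyme then reacted 60 min at room temperature, inhibition relative to enzyme reaction without compound, blank lacking enzyme and compound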
# Procedure: The MAO-B inhibitory activity evaluation described below followed the protocol of MAO-Glo (registered trademark) Assay of Promega KK.
# A test compound dissolved in 4% DMSO was added by 12.5 μL to 25 μL reaction solution (100 mM HEPES (pH 7.5), 5% glycerol, 10% DMSO) containing 400 ng of MAO-B enzyme (Sigma-Aldrich Co. LLC.), and the mixture was reacted at room temperature for 10 min. […] After reaction at room temperature for 60 min, Luciferine detection reagent (Promega KK) (50 μL) was added to terminate the reaction. After reaction at room temperature for 20 min with stirring, the luminescence was measured by Envision (PerkinElmer). The MAO-B inhibitory rate (%) of the test compound was calculated by the following formula. inhibitory rate(%)=(1−(test compound count−blank)÷(control−blank))×100
# The count of the MAO-B enzyme reaction mixture under compound non-addition conditions is indicated as control, and the count under compound non-addition and MAO-B enzyme non-addition conditions is indicated as blank.
# human LSD1(172-833) = human LSD1(172-833) (Homo sapiens (Human), UniProt O60341); experiment: Measurement of LSD1 inhibitory activity (time-resolved fluorescence, biotin-histone H3 mono methylated K4 peptide); format: biochemical
# Procedure: When the turbidity reached 500 Klett units, the culture temperature was changed to 16° C., IPTG (Isopropyl β-D-1-thiogalactopyranoside) having a final concentration of 0.5 mM was added to induce expression, and the cells were cultured further for 14 hr. The culture medium was centrifuged at 6,000 g for 15 min, and Escherichia coil pellets were recovered.
# Using Branson ultrasonic disintegrator, the suspension was disrupted by ultrasonication for 3 min, and centrifuged at 33,000 g for 60 min, and the supernatant was recovered. […] It was concentrated to 10 mL with AmiconUltra (NWCO 30K) (Millipore Japan), and purified with HiLoad 26/60 Superdex 200 pg column (GE Healthcare) equilibrated with Buffer A to give hLSD1 purified product (8.4 mg). The protein concentration of hLSD1 was measured by BCA Protein Assay Kit (Thermo Fisher Scientific K.K.) using bovine serum albumin as the standard.
# (5) Measurement of LSD1 Inhibitory Activity
# After reaction at room temperature for 5 min, 1 mM 2-PCPA solution was added 5 μL to terminate the reaction. A detection solution ([…] potassium fluoride, 0.1% BSA) containing europium-labeled anti-histone H3 antibody (Wako Pure Chemical Industries, Ltd.) and Streptavidin-XL665 (Cisbio) was further added by 5 μL, and the mixture was left standing for 60 min.
# MAO-A enzyme = MAO-A enzyme (Homo sapiens (Human), UniProt P21397); experiment: Measurement of MAO-A inhibitory activity (MAO-Glo Assay); format: biochemical
# Chain of MAO-A enzyme (P21397 whole entry): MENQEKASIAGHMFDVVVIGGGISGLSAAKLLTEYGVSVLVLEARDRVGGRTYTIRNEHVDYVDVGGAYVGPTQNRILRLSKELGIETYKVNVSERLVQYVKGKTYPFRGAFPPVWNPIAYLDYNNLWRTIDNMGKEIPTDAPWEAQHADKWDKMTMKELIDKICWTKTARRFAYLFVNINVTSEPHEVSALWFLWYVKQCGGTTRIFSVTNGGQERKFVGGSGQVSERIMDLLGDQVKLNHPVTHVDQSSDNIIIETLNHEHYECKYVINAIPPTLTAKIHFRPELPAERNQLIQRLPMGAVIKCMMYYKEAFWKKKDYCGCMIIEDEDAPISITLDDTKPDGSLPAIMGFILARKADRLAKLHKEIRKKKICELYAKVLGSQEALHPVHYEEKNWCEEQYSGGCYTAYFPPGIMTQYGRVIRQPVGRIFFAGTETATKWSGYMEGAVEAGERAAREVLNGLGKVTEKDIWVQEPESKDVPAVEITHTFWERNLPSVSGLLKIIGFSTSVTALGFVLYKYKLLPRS
# Chain of MAO-B enzyme (P27338 whole entry): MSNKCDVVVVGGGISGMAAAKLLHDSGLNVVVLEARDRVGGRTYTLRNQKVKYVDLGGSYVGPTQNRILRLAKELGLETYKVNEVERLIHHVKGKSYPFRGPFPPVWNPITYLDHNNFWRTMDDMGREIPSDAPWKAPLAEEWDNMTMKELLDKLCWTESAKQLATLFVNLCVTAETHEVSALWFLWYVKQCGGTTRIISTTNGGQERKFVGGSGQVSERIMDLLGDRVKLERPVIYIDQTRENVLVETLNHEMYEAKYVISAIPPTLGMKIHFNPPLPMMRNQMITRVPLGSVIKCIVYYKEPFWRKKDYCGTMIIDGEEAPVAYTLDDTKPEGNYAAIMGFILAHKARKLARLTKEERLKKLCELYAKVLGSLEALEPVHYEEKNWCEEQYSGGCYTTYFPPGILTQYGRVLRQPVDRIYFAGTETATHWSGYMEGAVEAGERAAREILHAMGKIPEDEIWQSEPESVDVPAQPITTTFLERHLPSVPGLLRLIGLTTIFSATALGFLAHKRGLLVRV
SMILES,IC50 (MAO-B enzyme) [µM],IC50 (human LSD1(172-833)) [µM],IC50 (MAO-A enzyme) [µM]
"O=C1COc2ccc(CN[C@@H]3C[C@H]3c3ccc(C(=O)NCc4ccccc4)cc3)cc2N1 (relative stereo) [Example 44, N-benzyl-4-(trans-2-(((3-oxo-3,4-dihydro-2H-1,4-benzoxazin-6-yl)methyl)amino)cyclopropyl)benzamide trifluoroacetate]",> 10,< 0.1,1.3
"O=C(NCc1ccccc1)c1ccc([C@@H]2C[C@H]2NCc2ccc(-c3cnccn3)cc2)cc1 (relative stereo) [Example 45, N-benzyl-4-(trans-2-((4-(pyrazin-2-yl)benzyl)amino)cyclopropyl)benzamide bis(trifluoroacetate)]",> 10,< 0.1,1.7
"O=C(NCc1ccccc1)c1ccc([C@@H]2C[C@H]2NCc2cccs2)cc1 (relative stereo) [Example 46, N-benzyl-4-(trans-2-((2-thienylmethyl)amino)cyclopropyl)benzamide trifluoroacetate]",> 10,< 0.1,1.8
"Cc1ccsc1CN[C@@H]1C[C@H]1c1ccc(C(=O)NCc2ccccc2)cc1 (relative stereo) [Example 47, N-benzyl-4-(trans-2-(((3-methyl-2-thienyl)methyl)amino)cyclopropyl)benzamide trifluoroacetate]",> 10,< 0.1,5
"Cc1ccc(CN[C@@H]2C[C@H]2c2ccc(C(=O)NCc3ccccc3)cc2)s1 (relative stereo) [Example 48, N-benzyl-4-(trans-2-(((5-methyl-2-thienyl)methyl)amino)cyclopropyl)benzamide trifluoroacetate]",> 10,< 0.1,2.6
"Cc1csc(CN[C@@H]2C[C@H]2c2ccc(C(=O)NCc3ccccc3)cc2)c1 (relative stereo) [Example 49, N-benzyl-4-(trans-2-(((4-methyl-2-thienyl)methyl)amino)cyclopropyl)benzamide trifluoroacetate]",> 10,< 0.1,1.8
"N[C@@H]1C[C@H]1c1ccc(C(=O)Nc2ccc(-c3ncccn3)cc2)cc1 (relative stereo) [Example 50, 4-(trans-2-aminocyclopropyl)-N-(4-(pyrimidin-2-yl)phenyl)benzamide dihydrochloride]",> 10,< 0.1,0.2
"Cn1cc(NC(=O)c2ccc([C@@H]3C[C@H]3N)cc2)cn1 (relative stereo) [Example 51, 4-(trans-2-aminocyclopropyl)-N-(1-methyl-1H-pyrazol-4-yl)benzamide dihydrochloride]",> 10,< 0.1,0.83
"O=C(Nc1ccc(-c2ncccn2)cc1)c1ccc([C@@H]2C[C@H]2NCC2CC2)cc1 (relative stereo) [Example 52, 4-(trans-2-((cyclopropylmethyl)amino)cyclopropyl)-N-(4-(pyrimidin-2-yl)phenyl)benzamide dihydrochloride]",> 10,< 0.1,> 10
"Cn1cc(NC(=O)c2ccc([C@@H]3C[C@H]3NCC3CC3)cc2)cn1 (relative stereo) [Example 53, 4-(trans-2-((cyclopropylmethyl)amino)cyclopropyl)-N-(1-methyl-1H-pyrazol-4-yl)benzamide dihydrochloride]",> 10,< 0.1,> 10
"O=C(Nc1cccc(C(F)(F)F)c1)c1ccc([C@@H]2C[C@H]2NC2CCS(=O)(=O)CC2)cc1 (relative stereo) [Example 62, 4-(trans-2-((1,1-dioxidotetrahydro-2H-thiopyran-4-yl)amino)cyclopropyl)-N-(3-(trifluoromethyl)phenyl)benzamide hydrochloride]",4.8,< 0.1,> 10
"CN(C(=O)c1cccc([C@@H]2C[C@H]2NCC2CC2)c1)c1ccccc1 (relative stereo) [Example 80, 3-(trans-2-((cyclopropylmethyl)amino)cyclopropyl)-N-methyl-N-phenylbenzamide hydrochloride]",> 10,< 0.1,0.9
"O=C(Nc1cccc(-c2ncccn2)c1)c1cccc([C@@H]2C[C@H]2NCC2CC2)c1 (relative stereo) [Example 81, 3-(trans-2-((cyclopropylmethyl)amino)cyclopropyl)-N-(3-(pyrimidin-2-yl)phenyl)benzamide dihydrochloride]",> 10,< 0.1,5.2
"O=C(NC1CCCC1)c1cccc([C@@H]2C[C@H]2NCC2CCOCC2)c1 (relative stereo) [Example 83, N-cyclopentyl-3-(trans-2-((tetrahydro-2H-pyran-4-ylmethyl)amino)cyclopropyl)benzamide hydrochloride]",> 10,< 0.1,> 10
"CCn1cc(NC(=O)c2cccc([C@@H]3C[C@H]3NCC3CCOCC3)c2)cn1 (relative stereo) [Example 86, N-(1-ethyl-1H-pyrazol-4-yl)-3-(trans-2-((tetrahydro-2H-pyran-4-ylmethyl)amino)cyclopropyl)benzamide dihydrochloride]",> 10,< 0.1,> 10
"CC(C)(C)n1cc(NC(=O)c2cccc([C@@H]3C[C@H]3NCC3CCOCC3)c2)cn1 (relative stereo) [Example 89, N-(1-tert-butyl-1H-pyrazol-4-yl)-3-(trans-2-((tetrahydro-2H-pyran-4-ylmethyl)amino)cyclopropyl)benzamide dihydrochloride]",> 10,< 0.1,> 10
"Cc1ncc(NC(=O)c2cccc([C@@H]3C[C@H]3NCC3CCOCC3)c2)s1 (relative stereo) [Example 90, N-(2-methyl-1,3-thiazol-5-yl)-3-(trans-2-((tetrahydro-2H-pyran-4-ylmethyl)amino)cyclopropyl)benzamide dihydrochloride]",> 10,< 0.1,> 10
"Cc1cc(NC(=O)c2cccc([C@@H]3C[C@H]3NCC3CCOCC3)c2)on1 (relative stereo) [Example 92, N-(3-methyl-1,2-oxazol-5-yl)-3-(trans-2-((tetrahydro-2H-pyran-4-ylmethyl)amino)cyclopropyl)benzamide hydrochloride]",> 10,< 0.1,> 10
"O=C(NCCc1ccccc1)c1cccc([C@@H]2C[C@H]2NCC2CC2)c1 (relative stereo) [Example 120, 3-(trans-2-((cyclopropylmethyl)amino)cyclopropyl)-N-(2-phenylethyl) benzamide trifluoroacetate]",> 10,< 0.1,9.6
"O=C(Nc1cccc(F)c1)c1cccc([C@@H]2C[C@H]2NCC2CC2)c1 (relative stereo) [Example 122, 3-(trans-2-((cyclopropylmethyl)amino)cyclopropyl)-N-(3-fluorophenyl) benzamide trifluoroacetate]",> 10,< 0.1,> 10
"O=C(Nc1ccc(OC(F)(F)F)cc1)c1cccc([C@@H]2C[C@H]2NCC2CC2)c1 (relative stereo) [Example 123, 3-(trans-2-((cyclopropylmethyl)amino)cyclopropyl)-N-(4-(trifluoromethoxy)phenyl)benzamide trifluoroacetate]",> 10,< 0.1,> 10
"CS(=O)(=O)c1ccc(NC(=O)c2cccc([C@@H]3C[C@H]3NCC3CC3)c2)cc1 (relative stereo) [Example 124, 3-(trans-2-((cyclopropylmethyl)amino)cyclopropyl)-N-(4-(methylsulfonyl)phenyl)benzamide trifluoroacetate]",> 10,< 0.1,> 10
"O=C(Nc1ccc(-c2cn3c(n2)SCC3)cc1)c1cccc([C@@H]2C[C@H]2NCC2CC2)c1 (relative stereo) [Example 127, 3-(trans-2-((cyclopropylmethyl)amino)cyclopropyl)-N-(4-(2,3-dihydroimidazo[2,1-b][1,3]thiazol-6-yl)phenyl)benzamide bis(trifluoroacetate)]",> 10,< 0.1,> 10
"O=C(Nc1ccc(Cc2ccccc2)cc1)c1cccc([C@@H]2C[C@H]2NCC2CC2)c1 (relative stereo) [Example 129, N-(4-benzylphenyl)-3-(trans-2-((cyclopropylmethyl)amino)cyclopropyl)benzamide trifluoroacetate]",> 10,< 0.1,> 10
"Cc1cc(C)nc(Sc2cccc(NC(=O)c3cccc([C@@H]4C[C@H]4NCC4CC4)c3)c2)n1 (relative stereo) [Example 132, 3-(trans-2-((cyclopropylmethyl)amino)cyclopropyl)-N-(3-((4,6-dimethylpyrimidin-2-yl)sulfanyl)phenyl)benzamide trifluoroacetate]",> 10,< 0.1,> 10

# Reference: patent publication US9751885B2, “Cyclopropanamine compound and use thereof” (Takeda Pharmaceutical Company Limited, priority 2012, dated 2017)
